Test results from ChEMBL document CHEMBL1201862, “PubChem BioAssay data set” (2004).
Active and inactive are the calls of the source.

Assays:
HeLa = experiment: ATP-based viability loss in HeLa cells – cell-based, CellTiter-Glo luminescence, cherry-pick samples, cytotoxicity control for MITF activator project, dose response (AID 540259); type: functional; details: Homo sapiens
[1] = target: Eukaryotic translation initiation factor 4E (Mus musculus, UniProt P63073); experiment: blockers of eIF4G binding by eIF4E – biochemical, TR-FRET, dose response (AID 855); type: functional;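 note: potency for disrupting eIF4E binding to eIF4GI seen as loss of FRET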
Chain of Eukaryotic translation initiation factor 4E (P63073 whole entry): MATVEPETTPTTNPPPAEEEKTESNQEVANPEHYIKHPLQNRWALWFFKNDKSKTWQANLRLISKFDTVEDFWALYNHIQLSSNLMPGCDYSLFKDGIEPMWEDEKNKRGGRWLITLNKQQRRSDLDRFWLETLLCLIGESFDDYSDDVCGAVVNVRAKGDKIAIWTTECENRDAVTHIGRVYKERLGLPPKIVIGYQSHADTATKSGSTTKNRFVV

Nonstructural protein 1 = Nonstructural protein 1 (Influenza A virus, UniProt Q194T2); type: functional, Influenza A virus (A/California/07/2009(H1N1))
Chain of Nonstructural protein 1 (Q194T2 whole entry): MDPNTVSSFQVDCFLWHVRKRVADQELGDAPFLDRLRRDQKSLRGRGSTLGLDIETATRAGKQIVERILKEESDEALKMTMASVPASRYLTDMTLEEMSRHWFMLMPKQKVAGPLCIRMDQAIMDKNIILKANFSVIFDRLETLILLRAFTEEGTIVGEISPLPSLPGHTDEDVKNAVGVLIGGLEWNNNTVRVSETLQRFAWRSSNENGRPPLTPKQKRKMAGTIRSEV

Protein RecA = target: T1, Protein RecA (Mycobacterium tuberculosis, UniProt P9WHJ3); experiment: Fluorescence Cell-Free Homogeneous Dose Retest to Identify Inhibitors of RecA-Intein Splicing Activity. [Related pubchem assays (depositor defined):AID2097, AID2223, AID489010, AID492950]; type: functional
T1 sequence (P9WHJ3 whole entry): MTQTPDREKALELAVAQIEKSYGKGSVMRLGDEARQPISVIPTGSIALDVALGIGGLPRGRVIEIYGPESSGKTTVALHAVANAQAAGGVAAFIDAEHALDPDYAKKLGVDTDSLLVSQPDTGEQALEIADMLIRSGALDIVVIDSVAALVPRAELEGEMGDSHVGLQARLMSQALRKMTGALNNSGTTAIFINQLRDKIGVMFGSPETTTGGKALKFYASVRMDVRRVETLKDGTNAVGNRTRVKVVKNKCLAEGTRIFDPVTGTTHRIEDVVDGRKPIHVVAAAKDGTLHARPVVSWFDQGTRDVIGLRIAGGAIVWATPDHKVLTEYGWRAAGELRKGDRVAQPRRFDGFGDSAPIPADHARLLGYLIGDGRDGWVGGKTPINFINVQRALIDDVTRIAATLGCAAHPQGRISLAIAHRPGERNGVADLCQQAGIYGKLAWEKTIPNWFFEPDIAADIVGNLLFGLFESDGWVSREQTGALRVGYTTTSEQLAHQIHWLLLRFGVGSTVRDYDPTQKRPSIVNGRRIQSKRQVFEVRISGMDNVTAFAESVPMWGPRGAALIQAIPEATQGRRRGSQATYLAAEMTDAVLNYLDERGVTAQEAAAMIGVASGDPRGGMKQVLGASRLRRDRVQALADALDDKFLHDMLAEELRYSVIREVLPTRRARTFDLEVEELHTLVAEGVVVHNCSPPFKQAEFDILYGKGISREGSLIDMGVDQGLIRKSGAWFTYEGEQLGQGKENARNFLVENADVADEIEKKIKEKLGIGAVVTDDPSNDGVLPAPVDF

Beta-arrestin-1 = Beta-arrestin-1 (Homo sapiens, UniProt P49407); experiment: beta-arrestin/AP2 interaction blockers, potency – biochemical, cherry pick 1, beta2-adaptin appendage, flow cytometry, dose response (AID 588783); type: functional
Chain of Beta-arrestin-1 (P49407 whole entry): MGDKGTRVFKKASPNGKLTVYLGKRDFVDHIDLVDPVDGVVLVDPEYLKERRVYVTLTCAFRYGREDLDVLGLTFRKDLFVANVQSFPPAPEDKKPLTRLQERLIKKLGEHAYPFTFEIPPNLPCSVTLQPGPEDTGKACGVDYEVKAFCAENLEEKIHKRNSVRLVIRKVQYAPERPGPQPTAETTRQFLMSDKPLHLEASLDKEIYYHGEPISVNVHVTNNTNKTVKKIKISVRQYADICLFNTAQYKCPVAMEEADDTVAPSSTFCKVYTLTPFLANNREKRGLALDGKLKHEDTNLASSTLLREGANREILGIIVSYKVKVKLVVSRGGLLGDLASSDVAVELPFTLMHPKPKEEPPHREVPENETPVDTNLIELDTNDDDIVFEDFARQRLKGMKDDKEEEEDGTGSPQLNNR

[2] = target: C-C chemokine receptor type 6 (Homo sapiens, UniProt P51684); experiment: antagonism of CCR6 beta-arrestin recruitment – cell-based, luminescent beta-arrestin readout, dose response (AID 504728); type: functional
Chain of C-C chemokine receptor type 6 (P51684 whole entry): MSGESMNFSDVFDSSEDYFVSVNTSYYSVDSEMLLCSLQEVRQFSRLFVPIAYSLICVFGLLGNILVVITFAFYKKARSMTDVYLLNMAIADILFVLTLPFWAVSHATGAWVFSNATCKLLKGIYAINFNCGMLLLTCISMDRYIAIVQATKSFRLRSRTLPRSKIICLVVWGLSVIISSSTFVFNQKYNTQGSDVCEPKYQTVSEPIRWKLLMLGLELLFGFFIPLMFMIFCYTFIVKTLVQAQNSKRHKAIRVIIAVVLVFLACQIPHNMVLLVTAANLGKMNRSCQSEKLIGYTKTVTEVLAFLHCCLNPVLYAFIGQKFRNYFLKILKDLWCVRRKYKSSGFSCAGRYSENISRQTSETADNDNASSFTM

[3] = viability of HCT116 lacking mutant beta-catenin – cell-based, human colon tumor, dose response (AID 1045); type: functional;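 note: HCT116 colon tumor cells with beta catenin knocked out; cells exposed to compound for 60 hours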
[4] = target: T2, Replicative DNA helicase DnaB (Mycobacterium tuberculosis, UniProt P9WMR3); experiment: DnaB intein splicing inhibitors, dose response, biochemical, cell-free fluorescence (AID 449749); type: functional
T2 sequence (P9WMR3 whole entry): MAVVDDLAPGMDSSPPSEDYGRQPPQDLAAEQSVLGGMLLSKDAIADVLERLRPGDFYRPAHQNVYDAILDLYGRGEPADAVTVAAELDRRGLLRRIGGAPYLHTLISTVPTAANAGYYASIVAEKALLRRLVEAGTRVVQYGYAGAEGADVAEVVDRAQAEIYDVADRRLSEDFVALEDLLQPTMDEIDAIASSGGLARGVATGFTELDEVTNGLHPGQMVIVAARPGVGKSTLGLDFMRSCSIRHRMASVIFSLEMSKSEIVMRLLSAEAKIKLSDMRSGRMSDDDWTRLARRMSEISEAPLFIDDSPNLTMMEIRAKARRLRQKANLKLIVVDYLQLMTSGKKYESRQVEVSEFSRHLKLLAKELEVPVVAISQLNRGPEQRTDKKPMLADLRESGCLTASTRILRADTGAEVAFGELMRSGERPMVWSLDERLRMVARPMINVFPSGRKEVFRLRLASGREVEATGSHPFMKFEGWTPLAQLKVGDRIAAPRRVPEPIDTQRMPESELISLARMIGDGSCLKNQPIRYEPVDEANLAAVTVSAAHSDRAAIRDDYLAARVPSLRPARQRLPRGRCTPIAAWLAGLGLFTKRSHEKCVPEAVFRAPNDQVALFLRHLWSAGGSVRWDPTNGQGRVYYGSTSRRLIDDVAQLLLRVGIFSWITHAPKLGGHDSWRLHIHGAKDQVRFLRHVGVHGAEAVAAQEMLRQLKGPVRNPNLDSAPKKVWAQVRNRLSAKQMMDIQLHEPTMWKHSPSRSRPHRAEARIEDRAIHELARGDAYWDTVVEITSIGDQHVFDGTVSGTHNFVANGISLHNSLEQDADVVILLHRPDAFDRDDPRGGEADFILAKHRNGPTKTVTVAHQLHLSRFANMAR

Hexokinase HKDC1 = target: T3, Hexokinase HKDC1 (Homo sapiens, UniProt Q2TB90); experiment: inhibition of HKDC1 glucose phosphorylation – biochemical, W721R variant, dose response (AID 504729); type: functional
T3 sequence (Q2TB90 whole entry): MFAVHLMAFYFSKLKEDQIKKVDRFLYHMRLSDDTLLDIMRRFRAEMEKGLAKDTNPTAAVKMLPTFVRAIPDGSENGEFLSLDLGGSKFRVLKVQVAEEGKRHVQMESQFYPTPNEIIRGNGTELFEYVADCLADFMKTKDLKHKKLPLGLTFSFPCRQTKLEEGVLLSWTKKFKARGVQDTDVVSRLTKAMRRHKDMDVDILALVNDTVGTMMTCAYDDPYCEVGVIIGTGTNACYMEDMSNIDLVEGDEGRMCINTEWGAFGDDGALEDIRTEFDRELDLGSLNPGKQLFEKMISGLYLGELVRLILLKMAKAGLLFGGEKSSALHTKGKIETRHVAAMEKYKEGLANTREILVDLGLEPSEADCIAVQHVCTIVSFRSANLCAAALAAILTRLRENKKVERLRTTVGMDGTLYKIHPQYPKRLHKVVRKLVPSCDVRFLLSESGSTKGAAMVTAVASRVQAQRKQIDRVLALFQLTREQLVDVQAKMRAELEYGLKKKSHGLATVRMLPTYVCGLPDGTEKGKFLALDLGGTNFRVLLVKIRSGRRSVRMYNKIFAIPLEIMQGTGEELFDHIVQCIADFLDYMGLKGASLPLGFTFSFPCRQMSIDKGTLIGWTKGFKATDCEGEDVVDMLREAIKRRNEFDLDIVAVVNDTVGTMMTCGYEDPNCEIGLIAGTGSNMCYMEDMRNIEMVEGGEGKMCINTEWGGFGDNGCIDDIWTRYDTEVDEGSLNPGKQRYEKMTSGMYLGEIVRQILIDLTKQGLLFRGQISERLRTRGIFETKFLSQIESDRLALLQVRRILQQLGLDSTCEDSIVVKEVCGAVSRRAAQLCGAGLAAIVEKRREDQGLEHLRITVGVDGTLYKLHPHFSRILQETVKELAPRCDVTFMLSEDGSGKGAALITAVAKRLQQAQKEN

[5] = target: E3 ubiquitin-protein ligase Mdm2 (Homo sapiens, UniProt Q00987); experiment: MDM2-luc reporter signal enhancers, multi-concentration potency testing, MDM2 ubiquitin-protein ligase inhibitor program, whole-cell format, luminescence detection, 384-well microplate (AID 1394); type: functional;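 note: MDM2 E3 inhibitors raise luminescence so EC50 is for signal enhancement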
Chain of E3 ubiquitin-protein ligase Mdm2 (Q00987 whole entry): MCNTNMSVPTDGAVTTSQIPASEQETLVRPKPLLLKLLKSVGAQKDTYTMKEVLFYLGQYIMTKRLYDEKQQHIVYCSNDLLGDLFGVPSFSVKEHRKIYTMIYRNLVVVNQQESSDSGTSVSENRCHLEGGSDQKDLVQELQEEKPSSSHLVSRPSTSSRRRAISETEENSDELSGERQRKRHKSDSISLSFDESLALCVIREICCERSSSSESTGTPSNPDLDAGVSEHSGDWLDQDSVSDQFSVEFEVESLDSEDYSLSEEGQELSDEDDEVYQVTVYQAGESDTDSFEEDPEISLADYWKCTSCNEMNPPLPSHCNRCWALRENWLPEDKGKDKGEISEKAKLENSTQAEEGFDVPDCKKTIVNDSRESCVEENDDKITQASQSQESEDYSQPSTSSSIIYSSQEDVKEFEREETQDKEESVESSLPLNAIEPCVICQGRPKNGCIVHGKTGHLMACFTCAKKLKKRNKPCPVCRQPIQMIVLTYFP

Protein Tat = target: T4, Protein Tat (Human immunodeficiency virus type 1 group M subtype B (isolate HXB2)(HIV-1), UniProt P04608); type: functional;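 note: tat binding to TAR RNA read out by fluorescence polarization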
T4 sequence (P04608 whole entry): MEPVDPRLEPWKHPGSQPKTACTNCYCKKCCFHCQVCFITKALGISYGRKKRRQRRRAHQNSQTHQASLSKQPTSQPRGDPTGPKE

Beta-galactosidase = Beta-galactosidase (Escherichia coli, UniProt Q8VNN2); experiment: detection-enzyme interference by beta-gal modulators – biochemical, E. coli enzyme, set 3, artefact control for CCR6 antagonist project, dose response (AID 504712); type: functional
Chain of Beta-galactosidase (Q8VNN2 whole entry): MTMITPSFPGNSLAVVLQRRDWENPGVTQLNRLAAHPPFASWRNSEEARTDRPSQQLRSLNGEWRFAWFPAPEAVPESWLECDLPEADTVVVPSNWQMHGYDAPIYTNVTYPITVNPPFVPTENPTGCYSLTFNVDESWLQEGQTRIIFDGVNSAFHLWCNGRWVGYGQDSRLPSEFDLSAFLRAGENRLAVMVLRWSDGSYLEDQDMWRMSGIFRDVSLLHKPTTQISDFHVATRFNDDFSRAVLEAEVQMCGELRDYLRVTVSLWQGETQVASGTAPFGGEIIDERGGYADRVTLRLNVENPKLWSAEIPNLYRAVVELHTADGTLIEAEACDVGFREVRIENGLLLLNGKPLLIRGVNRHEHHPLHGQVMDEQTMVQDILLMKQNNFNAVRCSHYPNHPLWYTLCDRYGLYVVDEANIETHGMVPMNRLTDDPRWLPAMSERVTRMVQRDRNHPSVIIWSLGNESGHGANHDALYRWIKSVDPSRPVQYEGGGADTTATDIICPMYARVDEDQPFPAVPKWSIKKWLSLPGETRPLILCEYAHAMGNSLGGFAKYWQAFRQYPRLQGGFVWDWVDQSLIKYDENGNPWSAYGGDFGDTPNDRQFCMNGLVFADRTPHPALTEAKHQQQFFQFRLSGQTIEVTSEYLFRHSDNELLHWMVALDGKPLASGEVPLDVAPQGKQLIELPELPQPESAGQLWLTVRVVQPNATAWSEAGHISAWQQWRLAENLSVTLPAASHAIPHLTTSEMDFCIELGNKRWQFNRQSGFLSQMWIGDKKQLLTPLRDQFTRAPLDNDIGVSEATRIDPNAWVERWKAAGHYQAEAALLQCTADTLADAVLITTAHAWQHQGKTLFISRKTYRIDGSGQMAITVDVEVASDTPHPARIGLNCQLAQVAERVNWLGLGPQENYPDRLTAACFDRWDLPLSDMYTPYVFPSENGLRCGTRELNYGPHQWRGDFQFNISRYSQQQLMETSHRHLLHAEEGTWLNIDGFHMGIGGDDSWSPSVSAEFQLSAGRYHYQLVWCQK

[6] = target: Luciferin 4-monooxygenase (Photinus pyralis, UniProt P08659); experiment: Counter Screen for Luciferase-based Assay Positives. [Related pubchem assays: 620, 618, 411 ]
Chain of Luciferin 4-monooxygenase (P08659 whole entry): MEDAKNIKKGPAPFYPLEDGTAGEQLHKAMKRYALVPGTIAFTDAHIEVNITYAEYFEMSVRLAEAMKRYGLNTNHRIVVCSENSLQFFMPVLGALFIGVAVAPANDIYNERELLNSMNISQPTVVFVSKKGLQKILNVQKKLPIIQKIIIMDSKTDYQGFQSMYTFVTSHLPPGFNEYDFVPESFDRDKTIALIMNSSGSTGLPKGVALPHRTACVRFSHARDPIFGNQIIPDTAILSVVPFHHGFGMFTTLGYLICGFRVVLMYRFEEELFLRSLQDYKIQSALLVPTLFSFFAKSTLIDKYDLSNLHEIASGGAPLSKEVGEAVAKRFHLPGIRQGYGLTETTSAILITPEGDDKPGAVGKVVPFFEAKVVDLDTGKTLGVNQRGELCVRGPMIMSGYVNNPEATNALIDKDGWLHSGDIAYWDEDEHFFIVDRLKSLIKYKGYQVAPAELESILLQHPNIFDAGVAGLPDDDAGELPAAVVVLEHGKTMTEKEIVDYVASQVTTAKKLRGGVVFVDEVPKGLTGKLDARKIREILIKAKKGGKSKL

HT-1080 = experiment: HT1080 cell viability loss – fluorescence readout (AID 620); type: functional, cell-based; details: Homo sapiens
[7] = viability of PTEN-deleted HCT116 cells – cell-based, HCT116 PTEN knockout, dose response (AID 1047); type: functional;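 note: HCT116 colon tumor cells with PTEN knocked out; cells exposed to compound for 60 hours before readout; potency for loss of cell viability measured by luminescence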
[8] = target: T5, Probable nicotinate-nucleotide adenylyltransferase (Staphylococcus aureus (strain N315), UniProt P65502); type: functional, Staphylococcus aureus subsp. aureus N315;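 for IC50 Mean: confirmatory dose-response retesting of NadD inhibitor hits first found in an ultra-high-throughput screen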
T5 sequence (P65502 whole entry): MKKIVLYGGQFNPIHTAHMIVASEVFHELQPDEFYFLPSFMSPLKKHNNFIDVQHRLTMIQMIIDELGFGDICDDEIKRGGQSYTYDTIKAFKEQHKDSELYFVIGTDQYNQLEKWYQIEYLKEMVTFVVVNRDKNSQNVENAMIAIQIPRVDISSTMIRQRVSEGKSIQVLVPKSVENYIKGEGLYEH

DNA topoisomerase = DNA topoisomerase (Yersinia pestis, UniProt A0A2S9PM60); experiment: Yersinia topoisomerase I cleavage product accumulation – biochemical, cherry-pick, dose response (AID 588525)
Chain of DNA topoisomerase (A0A2S9PM60 whole entry): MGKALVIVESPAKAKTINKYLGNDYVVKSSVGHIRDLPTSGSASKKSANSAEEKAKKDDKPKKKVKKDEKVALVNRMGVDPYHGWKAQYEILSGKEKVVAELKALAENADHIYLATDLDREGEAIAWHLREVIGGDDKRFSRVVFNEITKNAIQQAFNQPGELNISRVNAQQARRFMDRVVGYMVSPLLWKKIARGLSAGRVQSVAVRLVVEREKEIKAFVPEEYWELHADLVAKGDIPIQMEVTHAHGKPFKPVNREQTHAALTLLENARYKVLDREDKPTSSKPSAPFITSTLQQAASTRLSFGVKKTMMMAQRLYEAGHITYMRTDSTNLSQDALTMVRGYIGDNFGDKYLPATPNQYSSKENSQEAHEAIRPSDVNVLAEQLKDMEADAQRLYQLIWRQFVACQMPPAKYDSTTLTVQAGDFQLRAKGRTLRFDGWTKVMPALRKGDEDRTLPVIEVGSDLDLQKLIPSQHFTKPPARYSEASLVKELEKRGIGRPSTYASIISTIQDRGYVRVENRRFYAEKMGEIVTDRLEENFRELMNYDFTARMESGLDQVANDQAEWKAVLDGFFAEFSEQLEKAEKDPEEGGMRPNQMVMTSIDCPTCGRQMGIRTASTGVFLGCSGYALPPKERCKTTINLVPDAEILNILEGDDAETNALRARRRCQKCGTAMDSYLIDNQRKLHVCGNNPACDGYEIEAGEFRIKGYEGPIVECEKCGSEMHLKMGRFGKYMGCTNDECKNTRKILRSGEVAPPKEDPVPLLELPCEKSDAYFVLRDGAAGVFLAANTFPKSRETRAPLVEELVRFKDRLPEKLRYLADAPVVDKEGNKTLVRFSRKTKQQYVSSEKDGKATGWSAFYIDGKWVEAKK

[9] = target: T5, Probable nicotinate-nucleotide adenylyltransferase; type: functional, Staphylococcus aureus subsp. aureus N315; details: read-out: IC50_Mean

## Cc1ccn2c(C(=O)c3ccc(Cl)cc3)cnc2c1
HeLa
  AC50: 37 µM (active)

## O=C1C(Cl)=C(N2CCCCC2)C(=O)C(Cl)=C1c1cnc(N2CCCCC2)s1
[1]
  IC50: > 64 µM (inactive)
Nonstructural protein 1
  IC50: 21.4 µM (active)
Protein RecA
  EC50: 0.766 µM (active)
Beta-arrestin-1
  IC50: 14.1 µM (active)
[2]
  IC50: > 66.6 µM (inactive)
[3]
  EC50: 2.75 µM (active)
[4]
  AC50: > 380 µM (inactive)
Hexokinase HKDC1
  IC50: 11.4 µM (active)
[5]
  EC50: 2.42 µM (active)
Protein Tat
  IC50: 1.99 µM (inconclusive)
Beta-galactosidase
  IC50: > 66.6 µM (inactive)
[6]
  EC50: 4.4 µM (active)
HT-1080
  EC50: 45.9 µM (active)
[7]
  EC50: 3.45 µM (active)

## O=C(Nc1ccn(CCCN(CCCn2ccc(NC(=O)OCc3ccccc3)nc2=O)CCc2cc3ccccc3[nH]2)c(=O)n1)OCc1ccccc1
[8]
  IC50: 15.9 µM (active)
DNA topoisomerase
  AC50: 2.54 µM (active)
[9]
  IC50: 40.7 µM (active)
